Reference: PubChem BioAssay AID1845209 (Molecular Pharmacology Branch, DTP, NCI, 2023)
Values joined by “and” are separate entries in the source; they are usually repeats but may differ in a detail not shown here. Equal values may be shown once.

Test system: NCI-H211 tumor spheroids, viability percent test/control
Experiment: Anticancer human tumor NCI-H211 cell line growth inhibition;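 further: spheroids exposed to agents for seven days before readout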
Conditions: spheroids with HUVEC and MSC; for viability, T/C: stronger effect = lower value
In short: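 Single agents and combinations were tested on spheroids built from tumor cells plus HUVEC and hMSC, at half-log dilutions starting at or near clinical Cmax, else 10 microM; final DMSO 0.25% (v/v).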

[1] = curve of first compound, second compound 0.003 µM
[2] = curve of first compound, second compound 0.00949 µM
[3] = curve of first compound, second compound 0.03 µM
[4] = curve of first compound, second compound 0.0949 µM
[5] = curve of first compound, second compound 0.3 µM
[6] = second compound 0.003 µM, first compound 0.0949 µM
[7] = second compound 0.003 µM, first compound 0.3 µM
[8] = second compound 0.003 µM, first compound 0.949 µM
[9] = second compound 0.003 µM, first compound 3 µM
[10] = second compound 0.00949 µM, first compound 0.0949 µM
[11] = second compound 0.00949 µM, first compound 0.3 µM
[12] = second compound 0.00949 µM, first compound 0.949 µM
[13] = second compound 0.00949 µM, first compound 3 µM
[14] = second compound 0.03 µM, first compound 0.0949 µM
[15] = second compound 0.03 µM, first compound 0.3 µM
[16] = second compound 0.03 µM, first compound 0.949 µM
[17] = second compound 0.03 µM, first compound 3 µM
[18] = second compound 0.0949 µM, first compound 0.0949 µM
[19] = second compound 0.0949 µM, first compound 0.3 µM
[20] = second compound 0.0949 µM, first compound 0.949 µM
[21] = second compound 0.0949 µM, first compound 3 µM
[22] = second compound 0.3 µM, first compound 0.0949 µM
[23] = second compound 0.3 µM, first compound 0.3 µM
[24] = second compound 0.3 µM, first compound 0.949 µM
[25] = second compound 0.3 µM, first compound 3 µM

## O=C(c1cc(Cc2n[nH]c(=O)c3ccccc23)ccc1F)N1CCN(C(=O)C2CC2)CC1 + CC[C@@]1(O)C(=O)OCc2c1cc1n(c2=O)Cc2cc3c(CN(C)C)c(O)ccc3nc2-1
[1]
  IC50: < 94.9 nM
[2]
  IC50: < 94.9 nM
[3]
  IC50: < 94.9 nM
[4]
  IC50: < 94.9 nM
[5]
  IC50: < 94.9 nM
[6]
  viability, T/C: 9.62%
[7]
  viability, T/C: 3.33%
[8]
  viability, T/C: 1.25%
[9]
  viability, T/C: 1.06%
Second compound 0.003 µM, first compound 9.49 µM
  viability, T/C: 0.76%
Second compound 0.003 µM, first compound 30 µM
  viability, T/C: 0.99%
[10]
  viability, T/C: 1.09%
[11]
  viability, T/C: 1.14%
[12]
  viability, T/C: 1.15%
[13]
  viability, T/C: 1.2%
Second compound 0.00949 µM, first compound 9.49 µM
  viability, T/C: 1.06%
Second compound 0.00949 µM, first compound 30 µM
  viability, T/C: 0.96%
[14]
  viability, T/C: 1.07%
[15]
  viability, T/C: 1.19%
[16]
  viability, T/C: 1.2%
[17]
  viability, T/C: 1.12%
Second compound 0.03 µM, first compound 9.49 µM
  viability, T/C: 0.99%
Second compound 0.03 µM, first compound 30 µM
  viability, T/C: 0.78%
[18]
  viability, T/C: 1.07%
[19]
  viability, T/C: 1.03%
[20]
  viability, T/C: 1.31%
[21]
  viability, T/C: 1.37%
Second compound 0.0949 µM, first compound 9.49 µM
  viability, T/C: 0.98%
Second compound 0.0949 µM, first compound 30 µM
  viability, T/C: 1.09%
[22]
  viability, T/C: 1.03%
[23]
  viability, T/C: 1.25%
[24]
  viability, T/C: 1%
[25]
  viability, T/C: 1.05%
Second compound 0.3 µM, first compound 9.49 µM
  viability, T/C: 1%
Second compound 0.3 µM, first compound 30 µM
  viability, T/C: 0.91%

## Cc1sc2c(c1C)C(c1ccc(Cl)cc1)=NC(CC(=O)Nc1ccc(O)cc1)c1nnc(C)n1-2 (configuration not stated) + CC[C@@]1(O)C(=O)OCc2c1cc1n(c2=O)Cc2cc3c(CN(C)C)c(O)ccc3nc2-1
[1]
  IC50: < 9.49 nM
[2]
  IC50: < 9.49 nM
[3]
  IC50: < 9.49 nM
[4]
  IC50: < 9.49 nM
[5]
  IC50: < 9.49 nM
Second compound 0.003 µM, first compound 0.00949 µM
  viability, T/C: 30.2%
Second compound 0.003 µM, first compound 0.03 µM
  viability, T/C: 3.07%
[6]
  viability, T/C: 0.77%
[7]
  viability, T/C: 0.53%
[8]
  viability, T/C: 0.42%
[9]
  viability, T/C: 0.44%
Second compound 0.00949 µM, first compound 0.00949 µM
  viability, T/C: 3.11%
Second compound 0.00949 µM, first compound 0.03 µM
  viability, T/C: 0.89%
[10]
  viability, T/C: 0.89%
[11]
  viability, T/C: 0.57%
[12]
  viability, T/C: 0.46%
[13]
  viability, T/C: 0.57%
Second compound 0.03 µM, first compound 0.00949 µM
  viability, T/C: 0.97%
Second compound 0.03 µM, first compound 0.03 µM
  viability, T/C: 0.72%
[14]
  viability, T/C: 0.81%
[15]
  viability, T/C: 0.54%
[16]
  viability, T/C: 0.57%
[17]
  viability, T/C: 0.55%
Second compound 0.0949 µM, first compound 0.00949 µM
  viability, T/C: 0.76%
Second compound 0.0949 µM, first compound 0.03 µM
  viability, T/C: 0.8%
[18]
  viability, T/C: 0.73%
[19]
  viability, T/C: 0.79%
[20]
  viability, T/C: 0.59%
[21]
  viability, T/C: 0.6%
Second compound 0.3 µM, first compound 0.00949 µM
  viability, T/C: 0.94%
Second compound 0.3 µM, first compound 0.03 µM
  viability, T/C: 0.9%
[22]
  viability, T/C: 0.83%
[23]
  viability, T/C: 0.85%
[24]
  viability, T/C: 0.54%
[25]
  viability, T/C: 0.51%

## CNCc1ccc(-c2cc(-c3nc(-c4ccc(S(=O)(=O)C(C)C)cc4)cnc3N)on2)cc1
Compound 0.00949 µM
  viability, T/C: 66.6% and 86.6% and 97.1%
Compound 0.03 µM
  viability, T/C: 44.6% and 56.7% and 86.2%
Compound 0.0949 µM
  viability, T/C: 9.22% and 5.33% and 14.5%
Compound 0.3 µM
  viability, T/C: 1.18% and 1.04% and 0.87%
Compound 0.949 µM
  viability, T/C: 0.24% and 0.22% and 0.59%
Compound 3 µM
  viability, T/C: 0.17% and 0.19% (2×)
Curve of compound
  IC50: 22.6 nM and 34.8 nM and 53.7 nM

## [2H]c1nc(C)nc([2H])c1-c1cc(NC[C@@H](C)c2cccc3c(C(=O)NC)ccnc23)ncn1 + CC[C@@]1(O)C(=O)OCc2c1cc1n(c2=O)Cc2cc3c(CN(C)C)c(O)ccc3nc2-1
[1]
  IC50: 8430 nM
[2]
  IC50: < 31.6 nM
[3]
  IC50: < 31.6 nM
[4]
  IC50: < 31.6 nM
[5]
  IC50: < 31.6 nM
Second compound 0.003 µM, first compound 0.0316 µM
  viability, T/C: 65.3%
Second compound 0.003 µM, first compound 0.1 µM
  viability, T/C: 63.1%
Second compound 0.003 µM, first compound 0.316 µM
  viability, T/C: 49.7%
Second compound 0.003 µM, first compound 1 µM
  viability, T/C: 65.6%
Second compound 0.003 µM, first compound 3.16 µM
  viability, T/C: 51%
Second compound 0.003 µM, first compound 10 µM
  viability, T/C: 48.1%
Second compound 0.00949 µM, first compound 0.0316 µM
  viability, T/C: 4.11%
Second compound 0.00949 µM, first compound 0.1 µM
  viability, T/C: 1.98%
Second compound 0.00949 µM, first compound 0.316 µM
  viability, T/C: 1.95%
Second compound 0.00949 µM, first compound 1 µM
  viability, T/C: 1.63%
Second compound 0.00949 µM, first compound 3.16 µM
  viability, T/C: 2.52%
Second compound 0.00949 µM, first compound 10 µM
  viability, T/C: 1.58%
Second compound 0.03 µM, first compound 0.0316 µM
  viability, T/C: 0.8%
Second compound 0.03 µM, first compound 0.1 µM
  viability, T/C: 1.15%
Second compound 0.03 µM, first compound 0.316 µM
  viability, T/C: 1.33%
Second compound 0.03 µM, first compound 1 µM
  viability, T/C: 0.93%
Second compound 0.03 µM, first compound 3.16 µM
  viability, T/C: 1.82%
Second compound 0.03 µM, first compound 10 µM
  viability, T/C: 1.19%
Second compound 0.0949 µM, first compound 0.0316 µM
  viability, T/C: 1.46%
Second compound 0.0949 µM, first compound 0.1 µM
  viability, T/C: 0.76%
Second compound 0.0949 µM, first compound 0.316 µM
  viability, T/C: 1.4%
Second compound 0.0949 µM, first compound 1 µM
  viability, T/C: 0.83%
Second compound 0.0949 µM, first compound 3.16 µM
  viability, T/C: 1.25%
Second compound 0.0949 µM, first compound 10 µM
  viability, T/C: 1.69%
Second compound 0.3 µM, first compound 0.0316 µM
  viability, T/C: 1.19%
Second compound 0.3 µM, first compound 0.1 µM
  viability, T/C: 1.37%
Second compound 0.3 µM, first compound 0.316 µM
  viability, T/C: 0.88%
Second compound 0.3 µM, first compound 1 µM
  viability, T/C: 1.14%
Second compound 0.3 µM, first compound 3.16 µM
  viability, T/C: 0.92%
Second compound 0.3 µM, first compound 10 µM
  viability, T/C: 0.98%
